For test [1], the species on record is Mus musculus. The test can be described thus: Activity against San Angelo virus infection in mice. It counts as functional.
The subject of test [2] is Mus musculus. In words: Mean survival time of San Angelo virus infected mice that died; survivors lived through 21 days after intraperitoneal administration of 100 mg/kg. The class given is functional.
Test [3] concerns Mus musculus. In words: Activity against San Angelo virus infection in mice after intraperitoneal administration of 50 mg/kg. The class given is functional.
Test [4] relates to Mus musculus. In words: Activity against San Angelo virus infection in mice after intraperitoneal administration of 25 mg/kg. The class given is functional.
Test [5] concerns Mus musculus. The test can be described thus: Activity against San Angelo virus infection in mice after intraperitoneal administration of 100 mg/kg. The class given is functional.
Test [6] concerns Mus musculus. The test can be described thus: Mean survival time of Forest virus infected mice that died; survivors lived through 21 days after intraperitoneal administration of 100 mg/kg. The class given is functional.
The subject of test [7] is Mus musculus. The test can be described thus: Mean survival time of San Angelo virus infected mice that died; survivors lived through 21 days after intraperitoneal administration of 50 mg/kg. It counts as functional.
For test [8], the species on record is Mus musculus. The test can be described thus: Mean survival time of San Angelo virus infected mice that died; survivors lived through 21 days. It counts as functional.
Test [9] is filed under the species Mus musculus. The test can be described thus: Activity against Forest virus infection in mice. It counts as functional.
Test [10] deals with Mus musculus. The test can be described thus: Mean survival time of San Angelo virus infected mice that died; survivors lived through 21 days after intraperitoneal administration of 25 mg/kg. It counts as functional.
Test [11] deals with Mus musculus. The test can be described thus: Activity against Forest virus infection in mice after oral administration of 200 mg/kg. It counts as functional.
Test [12] concerns Mus musculus. The test can be described thus: Mean survival time of Forest virus infected mice that died; survivors lived through 21 days after oral administration of 200 mg/kg. The class given is functional.
The species entered for test [13] is Mus musculus. In words: Inhibition of […] murine melanoma artificial metastasis in lungs of C57BL/6j mice expressed as average of B16-F10 colonies in lungs from 6 or 7 mice on 18-19th days (no. of mice = 7). The class given is functional, Lung.
Test [14] relates to Mus musculus. The test can be described thus: Activity against Forest virus infection in mice after intraperitoneal administration of 50 mg/kg. It counts as functional.
Test [15] deals with Mus musculus. The test can be described thus: Mean survival time of Forest virus infected mice that died; survivors lived through 21 days after intraperitoneal administration of 50 mg/kg. It counts as functional.
Test [16] relates to Mus musculus. In words: Activity against Forest virus infection in mice after intraperitoneal administration of 100 mg/kg. The class given is functional.
The species entered for test [17] is Mus musculus. The test can be described thus: Inhibition of […] murine melanoma artificial metastasis in lungs of C57BL/6j mice expressed as average of B16-F10 colonies in lungs from 6 or 7 mice on 17th day (no. of mice = 6). It counts as functional, Lung.
The species named for test [18] is Mus musculus. The test can be described thus: Mean survival time of Forest virus infected mice that died; survivors lived through 21 days. It counts as functional.
The test system of test [19] is Mus musculus. In words: Activity against Forest virus infection in mice after intraperitoneal administration of 25 mg/kg. It counts as functional.
The test system of test [20] is Mus musculus. The test can be described thus: Mean survival time of San Angelo virus infected mice that died; survivors lived through 21 days after intraperitoneal administration of 10 mg/kg. The class given is functional.
Test [21] has as its system Mus musculus. In words: Mean survival time Forest virus infectedof mice that died; survivors lived through 21 days after intraperitoneal administration of 25 mg/kg. It counts as functional.
Test [22] relates to Mus musculus. In words: Activity against San Angelo virus infection in mice after intraperitoneal administration of 10 mg/kg. It counts as functional.
Test [23] has as its system Mus musculus. In words: Activity against Forest virus infection in mice, ip. The class given is functional.
Test [24] deals with Rattus norvegicus. The test can be described thus: Compound at a dose 100 mg/kg was administered to rat and Percent survivors after coronavirus infection in suckling rats. It counts as functional.
Test [25] is filed under the species Mus musculus. The test can be described thus: Mean survival time mice that died; survivors lived through 21 days. The class given is functional.
In test [26] the test system is Mus musculus. In words: Mean survival time of Forest virus infected mice that died; survivors lived through 21 days after intraperitoneal administration of 200 mg/kg. It counts as functional.
Test [27] concerns Mus musculus. In words: Activity against Forest virus infection in mice after intraperitoneal administration of 200 mg/kg. The class given is functional.

As to `Nc1nc2c(ccn2[C@@H]2O[C@H](CO)[C@@H](O)[C@H]2O)c(=O)[nH]1`, the Survivors in [1] was determined as 33%; in [3], 100%; in test [4], 92%; in test [5] it was 100%; in [9] it was 8%; in test [11] it was 83%. The Survivors in test [14] and in test [16] was 83% each time. The Mean survival in test [2] is more than 21 days; in test [6], 6.5 days; in [7], more than 21 days; in test [8], 7.9 days; in test [10], 9 days; in test [12], 8 days. Moreover, the Mean survival in test [15] came to 6 days; in test [18], 7.4 days. The Mean in test [13] was determined as 0.17; in [17], 0.14.
In the case of `N#Cc1cn(C2O[C@H](CO)[C@@H](O)[C@H]2O)c2nc(N)nc(O)c12` (some centres undefined), the Mean survival is 8.5 days in test [6] and 6 days in [18]. Moreover, the Survivors in test [9] was determined as 8%; in test [16] it was 50%.
Regarding `Nc1nc(O)c2cc(Cl)n(C3O[C@H](CO)[C@@H](O)[C@H]3O)c2n1` (some centres undefined), the Survivors in test [19] amounted to 92%; in test [1], 18%; in test [3], 100%; in [4], 100%; in test [22], 58%; in [23] it was 8%. Moreover, the Survivors in test [24] turned out to be 92%; in [14] it was 100%; in test [16], 92%. In addition, the Mean survival was 8 days in [20]; 6 days in test [21]; 7 days in [6]; more than 21 days in [7]; 7.2 days in test [8]; more than 21 days in test [10]. Further, the Mean survival is more than 21 days in test [15], 7 days in test [25] and 6.5 days in test [18].
Consider `Nc1nc(O)c2c(C(=O)O)cn(C3O[C@H](CO)[C@@H](O)[C@H]3O)c2n1` (some centres undefined), for which the Mean survival in [6] came out at 8.1 days; in test [26], 6 days; in test [18], 6.8 days. The Survivors in test [9] was determined as 17%; in test [27], 33%; in test [16], 8%.
`Cn1c(=S)n(C2O[C@H](CO)[C@@H](O)[C@H]2O)c2nc(N)nc(O)c21` (some centres undefined): in test [24], the Survivors turned out to be 58%.
Still for that read-out and setting: the figure for `Cn1c(=O)n(C2O[C@H](CO)[C@@H](O)[C@H]2O)c2nc(N)nc(O)c21` (some centres undefined) is 75%; for `Nc1nc(=O)c2sc(=O)n([C@@H]3O[C@H](CO)[C@@H](O)[C@H]3O)c2[nH]1` [ISATORIBINE] it is 83%.

The record behind these values is ChEMBL document CHEMBL1126611, “Modulation of leukocyte genetic expression by novel purine nucleoside analogues. A new approach to antitumor and antiviral agents” (1993).
